Experimental data: patent US8067424B2, “Selective inhibitors for cyclin-dependent kinases” (Emory University, priority 2007, dated 2011)
Read-outs that look alike come from different tables or passages of the source.

How the values were obtained:
MAPKAP-K3 = MAPKAP-K3 (Homo sapiens, UniProt Q16644); test: Kinase screen: MAPKAP-K3 assay; assay type: biochemical; conditions: read-out: Mean Remaining Enzyme Activity (%)
Method: Generally, the same procedure was used for all assays. Since the total assay volume was 25.5 microliters, 0.5 microliters of inhibitors at 51× assay concentration were added to the plates before any other addition.
The basic procedure was to add 0.5 microliters inhibitor/control in DMSO to plate. Fifteen microliters of enzyme/substrate/buffer mix were added and incubated for 5 min. Ten microliters MgATP at the relevant concentration were added and incubated for 30 min. The assay was stopped by adding 5 microliters of 3% orthophosphoric acid. The assay was transferred to a p81 filter plate and read in a scintillation counter of 30 sec/well. Note that this assay procedure was not followed for MKK1, which instead involved a two-step assay, and PKC alpha, which required the addition of lipid vesicles.
MAPKAP-K3 assay: 5-20 mU of MAPKAP-K3 (diluted in 50 mM Tris (pH 7.5), 0.1 mM EGTA, 1 mg/ml BSA, 0.1%, b-Mercaptoethanol) was assayed against substrate peptide ([…]) (SEQ ID NO: 3) in a final volume of 25.5 μl containing 50 mM Tris (pH 7.5), 0.1 mM EGTA, 0.1%, b-Mercaptoethanol, 30 μM substrate peptide, 10 mM magnesium acetate and 0.02 mM [33P-g-ATP] (500-1000 cpm/pmole) and incubated for 30 mins at room temperature. Assays were stopped by addition of 5 μl of 0.5M (3%) orthophosphoric acid. Assays were harvested onto P81 Unifilter plates using a wash buffer of 50 mM orthophosphoric acid.

[1] = test system: RNA polymerase II phosphorylation (P-Ser-2, P-Ser-5); test: Inhibition of phosphorylation of RNA polymerase II (immunoblot, MCF-7 cells); assay type: cell-based; conditions: MCF-7 cells treated 4 hours
Method: MCF-7 breast cancer cells were treated with BS-181 or Roscovitine at the concentrations shown in FIG. 2 for 4 hours prior to harvesting of cells. […] Immunblotting for β-actin was used as loading control for protein content.

PC-3 = test: cells; conditions: Homo sapiens
KM12 = test: cells; conditions: Homo sapiens
ACHN = test: cells; conditions: Homo sapiens
NCI/ADR-RES = test: cells; conditions: Homo sapiens
SN12C = test: cells; conditions: Homo sapiens
NCI-H226 = test: cells; conditions: Homo sapiens
COLO 205 = test: cells; conditions: Homo sapiens
OVCAR-4 = test: cells; conditions: Homo sapiens
A549/ATCC = conditions: for Mean Optical Densities / Percent Growth: A549/ATCC
CCRF-CEM = conditions: for Mean Optical Densities / Percent Growth: CCRF-CEM
BT-549 = test: cells; conditions: Homo sapiens
HS 578T = conditions: for Mean Optical Densities / Percent Growth: HS 578T
[2] = HCT-116, log10 concentration −4.0
[3] = HCT-116, log10 concentration −5.0
[4] = HCT-116, log10 concentration −6.0
[5] = HCT-116, log10 concentration −7.0
[6] = HCT-116, log10 concentration −8.0
[7] = NCI-H23, log10 concentration −4.0
[8] = NCI-H23, log10 concentration −5.0
[9] = NCI-H23, log10 concentration −6.0
[10] = NCI-H23, log10 concentration −7.0
[11] = NCI-H23, log10 concentration −8.0
[12] = SK-MEL-28, log10 concentration −4.0
[13] = SK-MEL-28, log10 concentration −5.0
[14] = SK-MEL-28, log10 concentration −6.0
[15] = SK-MEL-28, log10 concentration −7.0
[16] = SK-MEL-28, log10 concentration −8.0

Sequence of MAPKAP-K3 (Q16644 whole entry, species assumed): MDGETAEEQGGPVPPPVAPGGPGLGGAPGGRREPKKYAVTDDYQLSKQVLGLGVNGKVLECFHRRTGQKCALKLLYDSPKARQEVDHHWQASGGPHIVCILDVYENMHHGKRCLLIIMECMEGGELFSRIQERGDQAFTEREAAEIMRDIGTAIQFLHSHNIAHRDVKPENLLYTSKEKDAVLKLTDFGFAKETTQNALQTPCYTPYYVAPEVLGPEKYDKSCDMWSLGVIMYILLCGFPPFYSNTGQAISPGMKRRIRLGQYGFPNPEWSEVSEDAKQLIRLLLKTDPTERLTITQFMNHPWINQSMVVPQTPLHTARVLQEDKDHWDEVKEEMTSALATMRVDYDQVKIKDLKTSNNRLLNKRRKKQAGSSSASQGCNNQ

Question: Which results are given for `CC(C)c1cnn2c(NCc3ccccc3)cc(NCCCCCCCN)nc12` [BS-181]?
Answer: remaining activity at 10 µM (MAPKAP-K3): 119%; Inhibition of phosphorylation of RNA polymerase II [1]: capable of inhibiting phosphorylation of RNAPolymerase II

Question: For `CC(C)c1cnn2c(NCc3ccccc3)cc(N[C@@H](CO)[C@H](O)CO)nc12` [ICEC0318, (3S)-3-(7-(Benzylamino)-3-isopropylpyrazolo[1,5-a]pyrimidin-5-ylamino)butane-1,2,4-triol], which GI50 (PC-3; PC-3) is on record?
Answer: 314 nM

Question: And the CC50 (PC-3; PC-3, read-out: LC50)?
Answer: > 100000 nM

Question: What about the GI50 (KM12; KM12) of the same molecule?
Answer: 275 nM

Question: What about the CC50 (KM12; KM12, read-out: LC50) of the same molecule?
Answer: > 100000 nM

Question: What about the GI50 (ACHN) of the same molecule?
Answer: 233 nM

Question: And the CC50 (ACHN; read-out: LC50)?
Answer: > 100000 nM

Question: And the GI50 (NCI/ADR-RES)?
Answer: 2040 nM

Question: What about the CC50 (NCI/ADR-RES; read-out: LC50) of the same molecule?
Answer: > 100000 nM

Question: And the GI50 (SN12C)?
Answer: 327 nM

Question: And the CC50 (SN12C; read-out: LC50)?
Answer: > 100000 nM

Question: And the TGI (HCT-116; HCT-116 (Colon Cancer))?
Answer: >1.00E−4

Question: What about the “Mean Optical Densities” value (HCT-116; [2]) of the same molecule?
Answer: 0.170

Question: What about the “Percent Growth” value (HCT-116; [2]) of the same molecule?
Answer: 1%

Question: What about the “Mean Optical Densities” value (HCT-116; [3]) of the same molecule?
Answer: 0.179

Question: And the “Percent Growth” value (HCT-116; [3])?
Answer: 2%

Question: What about the “Mean Optical Densities” value (HCT-116; [4]) of the same molecule?
Answer: 0.182

Question: What about the “Percent Growth” value (HCT-116; [4]) of the same molecule?
Answer: 2%

Question: What about the “Mean Optical Densities” value (HCT-116; [5]) of the same molecule?
Answer: 0.749

Question: And the “Percent Growth” value (HCT-116; [5])?
Answer: 62%

Question: What about the “Mean Optical Densities” value (HCT-116; [6]) of the same molecule?
Answer: 1.058

Question: What about the “Percent Growth” value (HCT-116; [6]) of the same molecule?
Answer: 95%

Question: What about the GI50 (NCI-H226; NCI-H226) of the same molecule?
Answer: 272 nM

Question: What about the CC50 (NCI-H226; NCI-H226, read-out: LC50) of the same molecule?
Answer: > 100000 nM

Question: What about the GI50 (COLO 205; COLO 205) of the same molecule?
Answer: 147 nM

Question: What about the CC50 (COLO 205; COLO 205, read-out: LC50) of the same molecule?
Answer: 993 nM

Question: What about the GI50 (OVCAR-4; OVCAR-4) of the same molecule?
Answer: 343 nM

Question: And the CC50 (OVCAR-4; OVCAR-4, read-out: LC50)?
Answer: > 100000 nM

Question: And the TGI (A549/ATCC; A549/ATCC (Non-Small Cell Lung Cancer))?
Answer: >1.00E−4

Question: What about the “Mean Optical Densities” value (A549/ATCC; log10 concentration −4.0) of the same molecule?
Answer: 0.346

Question: What about the “Percent Growth” value (A549/ATCC; log10 concentration −4.0) of the same molecule?
Answer: 4%

Question: And the “Mean Optical Densities” value (A549/ATCC; log10 concentration −5.0)?
Answer: 0.417

Question: What about the “Percent Growth” value (A549/ATCC; log10 concentration −5.0) of the same molecule?
Answer: 10%

Question: What about the “Mean Optical Densities” value (A549/ATCC; log10 concentration −6.0) of the same molecule?
Answer: 0.422

Question: What about the “Percent Growth” value (A549/ATCC; log10 concentration −6.0) of the same molecule?
Answer: 11%

Question: What about the “Mean Optical Densities” value (A549/ATCC; log10 concentration −7.0) of the same molecule?
Answer: 1.369

Question: What about the “Percent Growth” value (A549/ATCC; log10 concentration −7.0) of the same molecule?
Answer: 94%

Question: And the “Mean Optical Densities” value (A549/ATCC; log10 concentration −8.0)?
Answer: 1.447

Question: And the “Percent Growth” value (A549/ATCC; log10 concentration −8.0)?
Answer: 101%

Question: What about the TGI (CCRF-CEM; CCRF-CEM (Leukemia)) of the same molecule?
Answer: >1.00E−4

Question: And the “Mean Optical Densities” value (CCRF-CEM; log10 concentration −4.0)?
Answer: 0.227

Question: What about the “Percent Growth” value (CCRF-CEM; log10 concentration −4.0) of the same molecule?
Answer: 11%

Question: What about the “Mean Optical Densities” value (CCRF-CEM; log10 concentration −5.0) of the same molecule?
Answer: 0.330

Question: What about the “Percent Growth” value (CCRF-CEM; log10 concentration −5.0) of the same molecule?
Answer: 33%

Question: What about the “Mean Optical Densities” value (CCRF-CEM; log10 concentration −6.0) of the same molecule?
Answer: 0.279

Question: And the “Percent Growth” value (CCRF-CEM; log10 concentration −6.0)?
Answer: 22%

Question: What about the “Mean Optical Densities” value (CCRF-CEM; log10 concentration −7.0) of the same molecule?
Answer: 0.565

Question: What about the “Percent Growth” value (CCRF-CEM; log10 concentration −7.0) of the same molecule?
Answer: 82%

Question: What about the “Mean Optical Densities” value (CCRF-CEM; log10 concentration −8.0) of the same molecule?
Answer: 0.769

Question: And the “Percent Growth” value (CCRF-CEM; log10 concentration −8.0)?
Answer: 125%

Question: And the TGI (NCI-H23; NCI-H23 (Non-Small Cell Lung Cancer))?
Answer: >1.00E−4

Question: What about the “Mean Optical Densities” value (NCI-H23; [7]) of the same molecule?
Answer: 0.562

Question: And the “Percent Growth” value (NCI-H23; [7])?
Answer: 1%

Question: And the “Mean Optical Densities” value (NCI-H23; [8])?
Answer: 0.563

Question: What about the “Percent Growth” value (NCI-H23; [8]) of the same molecule?
Answer: 1%

Question: And the “Mean Optical Densities” value (NCI-H23; [9])?
Answer: 0.633

Question: What about the “Percent Growth” value (NCI-H23; [9]) of the same molecule?
Answer: 6%

Question: What about the “Mean Optical Densities” value (NCI-H23; [10]) of the same molecule?
Answer: 1.639

Question: What about the “Percent Growth” value (NCI-H23; [10]) of the same molecule?
Answer: 81%

Question: What about the “Mean Optical Densities” value (NCI-H23; [11]) of the same molecule?
Answer: 1.802

Question: And the “Percent Growth” value (NCI-H23; [11])?
Answer: 93%

Question: And the TGI (SK-MEL-28; SK-MEL-28 (Melanoma))?
Answer: 8.70E−7

Question: And the “Mean Optical Densities” value (SK-MEL-28; [12])?
Answer: 0.114

Question: What about the “Percent Growth” value (SK-MEL-28; [12]) of the same molecule?
Answer: −62%

Question: And the “Mean Optical Densities” value (SK-MEL-28; [13])?
Answer: 0.198

Question: And the “Percent Growth” value (SK-MEL-28; [13])?
Answer: −34%

Question: And the “Mean Optical Densities” value (SK-MEL-28; [14])?
Answer: 0.284

Question: What about the “Percent Growth” value (SK-MEL-28; [14]) of the same molecule?
Answer: −6%

Question: And the “Mean Optical Densities” value (SK-MEL-28; [15])?
Answer: 0.733

Question: What about the “Percent Growth” value (SK-MEL-28; [15]) of the same molecule?
Answer: 85%

Question: What about the “Mean Optical Densities” value (SK-MEL-28; [16]) of the same molecule?
Answer: 0.816

Question: And the “Percent Growth” value (SK-MEL-28; [16])?
Answer: 102%

Question: And the GI50 (BT-549; BT-549)?
Answer: 258 nM

Question: And the CC50 (BT-549; BT-549, read-out: LC50)?
Answer: > 100000 nM

Question: What about the TGI (HS 578T; HS 578T (Breast Cancer)) of the same molecule?
Answer: 8.54E−7

Question: And the “Mean Optical Densities” value (HS 578T; log10 concentration −4.0)?
Answer: 0.314

Question: And the “Percent Growth” value (HS 578T; log10 concentration −4.0)?
Answer: −22%

Question: What about the “Mean Optical Densities” value (HS 578T; log10 concentration −5.0) of the same molecule?
Answer: 0.352

Question: What about the “Percent Growth” value (HS 578T; log10 concentration −5.0) of the same molecule?
Answer: −12%

Question: What about the “Mean Optical Densities” value (HS 578T; log10 concentration −6.0) of the same molecule?
Answer: 0.373

Question: And the “Percent Growth” value (HS 578T; log10 concentration −6.0)?
Answer: −7%

Question: And the “Mean Optical Densities” value (HS 578T; log10 concentration −7.0)?
Answer: 0.803

Question: What about the “Percent Growth” value (HS 578T; log10 concentration −7.0) of the same molecule?
Answer: 95%

Question: And the “Mean Optical Densities” value (HS 578T; log10 concentration −8.0)?
Answer: 0.867

Question: And the “Percent Growth” value (HS 578T; log10 concentration −8.0)?
Answer: 110%
